The results in this text go back to PubChem BioAssay (NCI).

Molecules are shown by their SMILES.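 Interpolation was linear, between the two tested concentrations surrounding the appropriate level; five concentrations were tested over 48 hours in 96-well plates. At the GI50, growth is halved. TGI is the concentration that stops growth completely.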

The first experiment relates to HOP-92 NSCLC. In words: NCI anticancer screen, dose series, 48 h.
Regarding `CCC1(C(=O)OC(C)(C)C)OC12C(C)CCCC2C` (stereo unspecified), the TGI amounted to 85.9 µM.

Compound `Cc1ccc(-c2cc(N)n(-c3nc4c(c(=O)n(C)c(=O)n4C)n3C)n2)cc1` returned a TGI above 100 µM.

Turning to `O=C(NC(Cc1ccc(I)cc1)C(=O)O)c1ccc(Br)cc1` (stereo unspecified), the TGI is above 100 µM.

As for `CC1CCOc2ccc(cc2)C=Nc2ccc(cc2)CCc2ccc(cc2)N=Cc2ccc(cc2)OCC1` (stereo unspecified), the TGI is above 100 µM.

Compound `COC(=O)[C@H](Cc1ccccc1)NC(=O)[C@H](Cc1ccccc1)NC(=O)[C@@H]1CCCN1C(=O)N[C@H]1C2C=CC(C2)C1C(=O)N1CCC[C@H]1C(=O)N[C@@H](C)C(=O)N[C@H](C(=O)OC)C(C)C` (stereo partly specified) displayed a TGI above 100 µM.

On to `O=C1c2ccccc2-c2nc(-c3cccc([N+](=O)[O-])c3)nnc21`, for which the TGI is above 100 µM.

Turning to `CNC(=O)Oc1ccc(-c2cn3cc(OC(=O)NC)ccc3n2)cc1`, the TGI is above 100 µM.

The compound `CC(=O)N1N=C(c2ccc3ccccc3c2O)CC1C(=O)c1ccco1` (stereo unspecified) gave a TGI above 100 µM.

`N#Cc1nc(-c2cccs2)oc1N` came in with a TGI above 100 µM.

`O=c1c2c([N+](=O)[O-])cccc2nc2[nH]c3ccccc3n12` came in with a TGI of 69 µM.

Consider `Cc1cc(C)cc(Nc2cc(=O)[nH]c(=O)[nH]2)c1`, for which the TGI was above 100 µM.

Take `O=c1[nH]/c(=C/c2ccc(OCc3ccccc3)cn2)c(=O)[nH]/c1=C/c1ccc(O)cc1`: the TGI is above 77.6 µM.

In the case of `N#C/C(=C\n1ccc(=O)[nH]c1=S)C(N)=O`, the TGI was above 100 µM.

Take `Nn1c(CCCCCCCCc2nnc(COc3ccc(Cl)cc3)n2N)nnc1COc1ccc(Cl)cc1`: the TGI is above 100 µM.

Compound `O=C(OCC1OC2OC(c3ccccc3)(n3ccc4c([N+](=O)[O-])ccnc43)OC2C1OC(=O)c1ccccc1)c1ccccc1` (stereo unspecified) had a TGI above 100 µM.

`Cc1[nH]c(=O)[nH]c(=O)c1/C=C/C(=O)O` displayed a TGI of 62.6 µM.

For `OCC1OC(n2cnc3c(Cl)nc(Nc4ccccc4)nc32)CC1O` (stereo unspecified), the TGI is 6.87 µM.

For the compound `C[C@]12CCc3nc(Nc4ccccc4)sc3C1=CC[C@@H]1[C@@H]2CC[C@]2(C)/C(=N/NC(N)=S)CC[C@@H]12`, the GI50 is 5.59 µM and the TGI was above 100 µM.

Compound `CN(NC(=O)c1cccs1)C1=NCCCN1` returned a TGI above 100 µM.

In turn, `O=C1CCCCC(=O)OC2(CCCCC2=O)CC1` (stereo unspecified) came in with a TGI above 100 µM.

Compound `CC1=NN(c2ccc(S(=O)(=O)O)cc2)C2(C1)SCC(=O)N2c1nc2ccccc2s1` (stereo unspecified) had a TGI above 100 µM.

The compound `Nc1ccc2[nH]c3c(-c4ccccc4)nccc3c2c1` came in with a TGI above 100 µM.

`Cc1ccc2nc(Cl)c(/C=N/N3C(=O)/C(=C/c4ccccc4S)N=C3c3ccccc3)cc2c1` registered a TGI above 100 µM.

In the case of `CCOP(=O)(OCC)c1c(C(=O)OC)cc(=O)[nH]c1-c1ccc(C)cc1`, the TGI stood at 12.3 µM.

`COC(=O)C1=C(C(=O)OC)SC2(S1)C1=C(CCCC1)SC(C(=O)OC)=C2C(=O)OC` had a TGI of 18.3 µM.

Regarding `Cc1cn(C2CC(n3cc(Cn4cc(Br)c(=O)[nH]c4=O)nn3)C(CO)O2)c(=O)[nH]c1=O` (stereo unspecified), the TGI was above 100 µM.

Compound `CC1Cn2c(nc3ccccc32)NC1=O` (stereo unspecified) had a TGI above 100 µM.

The compound `Cc1cn(C(Cc2ccccc2)OCCO)c(=O)[nH]c1=O` (stereo unspecified) returned a TGI above 100 µM.

A further experiment has as its system HCT-15 colon. In words: NCI anticancer screen, dose series, 48 h.
For the compound `CCC1(C(=O)OC(C)(C)C)OC12C(C)CCCC2C` (stereo unspecified), the TGI is above 100 µM.

In the case of `Cc1ccc(-c2cc(N)n(-c3nc4c(c(=O)n(C)c(=O)n4C)n3C)n2)cc1`, the TGI was above 100 µM.

Consider `O=C(NC(Cc1ccc(I)cc1)C(=O)O)c1ccc(Br)cc1` (stereo unspecified), for which the TGI was above 100 µM.

`CC1CCOc2ccc(cc2)C=Nc2ccc(cc2)CCc2ccc(cc2)N=Cc2ccc(cc2)OCC1` (stereo unspecified) showed a TGI above 100 µM.

Consider `COC(=O)[C@H](Cc1ccccc1)NC(=O)[C@H](Cc1ccccc1)NC(=O)[C@@H]1CCCN1C(=O)N[C@H]1C2C=CC(C2)C1C(=O)N1CCC[C@H]1C(=O)N[C@@H](C)C(=O)N[C@H](C(=O)OC)C(C)C` (stereo partly specified), for which the TGI is above 100 µM.

`O=C1c2ccccc2-c2nc(-c3cccc([N+](=O)[O-])c3)nnc21` returned a TGI of 59.9 µM.

Compound `CNC(=O)Oc1ccc(-c2cn3cc(OC(=O)NC)ccc3n2)cc1` returned a TGI above 100 µM.

As to `CC(=O)N1N=C(c2ccc3ccccc3c2O)CC1C(=O)c1ccco1` (stereo unspecified), the TGI was above 100 µM.

As for `N#Cc1nc(-c2cccs2)oc1N`, the TGI is above 100 µM.

In turn, `O=c1c2c([N+](=O)[O-])cccc2nc2[nH]c3ccccc3n12` had a TGI above 75 µM.

Regarding `Cc1cc(C)cc(Nc2cc(=O)[nH]c(=O)[nH]2)c1`, the TGI was above 100 µM.

As for `O=c1[nH]/c(=C/c2ccc(OCc3ccccc3)cn2)c(=O)[nH]/c1=C/c1ccc(O)cc1`, the TGI is above 100 µM.

The compound `N#C/C(=C\n1ccc(=O)[nH]c1=S)C(N)=O` had a TGI above 100 µM.

`Nn1c(CCCCCCCCc2nnc(COc3ccc(Cl)cc3)n2N)nnc1COc1ccc(Cl)cc1` displayed a TGI above 100 µM.

In turn, `O=C(OCC1OC2OC(c3ccccc3)(n3ccc4c([N+](=O)[O-])ccnc43)OC2C1OC(=O)c1ccccc1)c1ccccc1` (stereo unspecified) came in with a TGI above 100 µM.

With `Cc1[nH]c(=O)[nH]c(=O)c1/C=C/C(=O)O`, the TGI was above 1000 µM.

As to `OCC1OC(n2cnc3c(Cl)nc(Nc4ccccc4)nc32)CC1O` (stereo unspecified), the TGI worked out at 60.8 µM.

`C[C@]12CCc3nc(Nc4ccccc4)sc3C1=CC[C@@H]1[C@@H]2CC[C@]2(C)/C(=N/NC(N)=S)CC[C@@H]12`: the GI50 was 1.64 µM and the TGI was 6.25 µM.

In turn, `CN(NC(=O)c1cccs1)C1=NCCCN1` showed a TGI above 100 µM.

For the compound `O=C1CCCCC(=O)OC2(CCCCC2=O)CC1` (stereo unspecified), the TGI was above 100 µM.

The compound `CC1=NN(c2ccc(S(=O)(=O)O)cc2)C2(C1)SCC(=O)N2c1nc2ccccc2s1` (stereo unspecified) registered a TGI above 100 µM.

For the compound `Nc1ccc2[nH]c3c(-c4ccccc4)nccc3c2c1`, the TGI is above 100 µM.

As to `Cc1ccc2nc(Cl)c(/C=N/N3C(=O)/C(=C/c4ccccc4S)N=C3c3ccccc3)cc2c1`, the TGI was above 100 µM.

Regarding `CCOP(=O)(OCC)c1c(C(=O)OC)cc(=O)[nH]c1-c1ccc(C)cc1`, the TGI was found to be 27.2 µM.

Take `COC(=O)C1=C(C(=O)OC)SC2(S1)C1=C(CCCC1)SC(C(=O)OC)=C2C(=O)OC`: the TGI came to 18.1 µM.

As to `Cc1cn(C2CC(n3cc(Cn4cc(Br)c(=O)[nH]c4=O)nn3)C(CO)O2)c(=O)[nH]c1=O` (stereo unspecified), the TGI was above 100 µM.

Turning to `CC1Cn2c(nc3ccccc32)NC1=O` (stereo unspecified), the TGI is above 100 µM.

With `Cc1cn(C(Cc2ccccc2)OCCO)c(=O)[nH]c1=O` (stereo unspecified), the TGI is above 100 µM.

The next experiment relates to HL-60(TB) leukemia. Kind of experiment: NCI anticancer screen, dose series, 48 h.
`CCC1(C(=O)OC(C)(C)C)OC12C(C)CCCC2C` (stereo unspecified) showed a TGI of 37 µM.

The compound `Cc1ccc(-c2cc(N)n(-c3nc4c(c(=O)n(C)c(=O)n4C)n3C)n2)cc1` showed a TGI above 100 µM.

As to `O=C(NC(Cc1ccc(I)cc1)C(=O)O)c1ccc(Br)cc1` (stereo unspecified), the TGI is above 100 µM.

Compound `COC(=O)[C@H](Cc1ccccc1)NC(=O)[C@H](Cc1ccccc1)NC(=O)[C@@H]1CCCN1C(=O)N[C@H]1C2C=CC(C2)C1C(=O)N1CCC[C@H]1C(=O)N[C@@H](C)C(=O)N[C@H](C(=O)OC)C(C)C` (stereo partly specified) came in with a TGI above 100 µM.

With `O=C1c2ccccc2-c2nc(-c3cccc([N+](=O)[O-])c3)nnc21`, the TGI is 16.8 µM.

Compound `N#Cc1nc(-c2cccs2)oc1N` registered a TGI above 100 µM.

`O=c1c2c([N+](=O)[O-])cccc2nc2[nH]c3ccccc3n12` gave a TGI above 75 µM.

Turning to `Cc1cc(C)cc(Nc2cc(=O)[nH]c(=O)[nH]2)c1`, the TGI is above 100 µM.
